From patent US8884023B2, “Pyrano [3,2-D][1,3]thiazole as glycosidase inhibitors” (priority 2011, dated 2014)

target: T1, His-Tagged hOGA (human O-GlcNAcase) (Homo sapiens, UniProt O60502); assay: biochemical; settings: not given
T1 sequence (O60502 1-916): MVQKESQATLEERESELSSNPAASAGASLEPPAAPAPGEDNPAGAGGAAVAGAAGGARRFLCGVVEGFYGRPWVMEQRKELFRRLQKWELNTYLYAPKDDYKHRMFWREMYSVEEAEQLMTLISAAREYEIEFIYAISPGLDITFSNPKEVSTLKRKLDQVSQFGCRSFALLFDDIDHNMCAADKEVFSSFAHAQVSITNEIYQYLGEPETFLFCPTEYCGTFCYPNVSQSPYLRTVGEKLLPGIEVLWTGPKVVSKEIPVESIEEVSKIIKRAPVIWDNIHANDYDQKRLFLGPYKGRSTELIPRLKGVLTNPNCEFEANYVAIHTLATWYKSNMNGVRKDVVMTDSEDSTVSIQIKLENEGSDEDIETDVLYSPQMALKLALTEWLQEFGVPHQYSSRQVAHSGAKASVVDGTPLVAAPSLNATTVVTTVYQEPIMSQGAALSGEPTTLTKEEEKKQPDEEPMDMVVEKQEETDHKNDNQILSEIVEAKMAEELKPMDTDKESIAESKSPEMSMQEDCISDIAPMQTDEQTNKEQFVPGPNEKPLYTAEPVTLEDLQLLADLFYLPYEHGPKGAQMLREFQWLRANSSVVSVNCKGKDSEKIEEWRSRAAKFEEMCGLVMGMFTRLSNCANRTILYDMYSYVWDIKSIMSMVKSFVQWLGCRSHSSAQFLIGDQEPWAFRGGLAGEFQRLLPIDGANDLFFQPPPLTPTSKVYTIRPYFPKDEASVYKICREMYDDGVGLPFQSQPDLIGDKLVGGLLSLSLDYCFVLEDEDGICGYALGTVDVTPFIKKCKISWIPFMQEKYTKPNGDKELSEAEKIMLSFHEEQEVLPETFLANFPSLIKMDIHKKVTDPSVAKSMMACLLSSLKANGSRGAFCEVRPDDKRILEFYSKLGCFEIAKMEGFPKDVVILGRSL
Experimental: Human O-GlcNAcase Enzyme Inhibition Assay
The following reaction components were added to a final volume of 10 μL in McIlvaine's Buffer (pH 6.5):
20 nM His-Tagged hOGA and 10 μM Fluoroscein mono-beta-D-(2-deoxy-2-N-acetyl) glucopyranoside (FL-GlcNAc; Marker Gene Technologies Inc, Part #M1485). […] The amount of fluorescence measured was plotted against the concentration of inhibitor to produce a sigmoidal dose response curve, from which an IC50 was calculated.

Structure (SMILES)	IC50
CCNC1=N[C@@H]2[C@@H](O)[C@H](O)[C@@H](C(=O)NCCc3ccc(-c4ccccc4)cc3)O[C@@H]2S1 [compound no. 23, (3aR,5S,6S,7R,7aR)—N-(2-biphenyl-4-ylethyl)-2-(ethylamino)-6,7-dihydroxy-5,6,7,7a-tetrahydro-3aH-pyrano[3,2-d][1,3]thiazole-5-carboxamide]	> 1000 nM
CCNC1=N[C@@H]2[C@@H](O)[C@H](O)[C@@H](C(=O)N(C)C)O[C@@H]2S1 [compound no. 28, (3aR,5S,6S,7R,7aR)-2-(ethylamino)-6,7-dihydroxy-N,N-dimethyl-5,6,7,7a-tetrahydro-3aH-pyrano[3,2-d][1,3]thiazole-5-carboxamide]	> 1000 nM
CCNC1=N[C@@H]2[C@@H](O)[C@H](O)[C@@H](C(=O)Nc3ccccc3)O[C@@H]2S1 [compound no. 31, (3aR,5S,6S,7R,7aR)-2-(ethylamino)-6,7-dihydroxy-N-phenyl-5,6,7,7a-tetrahydro-3aH-pyrano[3,2-d][1,3]thiazole-5-carboxamide]	> 1000 nM
CCNC1=N[C@@H]2[C@@H](O)[C@H](O)[C@@H](C(=O)NCCc3ccc(Oc4ccccc4)cc3)O[C@@H]2S1 [compound no. 33, (3aR,5S,6S,7R,7aR)-2-(ethylamino)-6,7-dihydroxy-N-[2-(4-phenoxyphenyl)ethyl]-5,6,7,7a-tetrahydro-3aH-pyrano[3,2-d][1,3]thiazole-5-carboxamide]	> 1000 nM
CCNC1=N[C@@H]2[C@@H](O)[C@H](O)[C@@H](C=O)O[C@@H]2S1 [compound no. 47, (3aR,5S,6S,7R,7aR)-2-(ethylamino)-6,7-dihydroxy-5,6,7,7a-tetrahydro-3aH-pyrano[3,2-d][1,3]thiazole-5-carbaldehyde]	< 100 nM
CCN(C(=O)OC)C1=N[C@@H]2[C@@H](O)[C@H](O)[C@@H](CO)O[C@@H]2S1 [compound no. 49, Methyl-[(3aR,5R,6S,7R,7aR)-6,7-dihydroxy-5-(hydroxymethyl)-5,6,7,7a-tetrahydro-3aH-pyrano[3,2-d][1,3]thiazol-2-yl]ethylcarbamate]	< 100 nM
CCNC1=N[C@@H]2[C@@H](O)[C@H](O)[C@@H]([C@H](O)CCCc3ccccc3)O[C@@H]2S1 [compound no. 55, (3aR,5R,6S,7R,7aR)-2-(ethylamino)-5-((R)1-hydroxy-4-phenylbutyl)-5,6,7,7a-tetrahydro-3aH-pyrano[3,2-d][1,3]thiazole-6,7-diol]	> 1000 nM
CCNC1=N[C@@H]2[C@@H](O)[C@H](O)[C@@H]([C@@H](O)CCCc3ccccc3)O[C@@H]2S1 [compound no. 56, (3aR,5R,6S,7R,7aR)-2-(ethylamino)-5-((S)1-hydroxy-4-phenylbutyl)-5,6,7,7a-tetrahydro-3aH-pyrano[3,2-d][1,3]thiazole-6,7-diol]	100 to 500 nM
CCNC1=N[C@@H]2[C@@H](O)[C@H](O)[C@@H](C(=O)CCCc3ccccc3)O[C@@H]2S1 [compound no. 60, 1-[(3aR,5S,6S,7R,7aR)-2-(ethylamino)-6,7-dihydroxy-5,6,7,7a-tetrahydro-3aH-pyrano[3,2-d][1,3]thiazol-5-yl]-4-phenylbutan-1-one]	> 1000 nM
CCNC1=N[C@@H]2[C@@H](O)[C@H](O)[C@@H](CN)O[C@@H]2S1 [compound no. 61, (3aR,5R,6S,7R,7aR)-5-(aminomethyl)-2-(ethylamino)-5,6,7,7a-tetrahydro-3aH-pyrano[3,2-d][1,3]thiazole-6,7-diol]	100 to 500 nM
CCN(C(=O)Oc1ccccc1)C1=N[C@@H]2[C@@H](O)[C@H](O)[C@@H](CO)O[C@@H]2S1 [compound no. 63, Phenyl-[(3aR,5R,6S,7R,7aR)-6,7-dihydroxy-5-(hydroxymethyl)-5,6,7,7a-tetrahydro-3aH-pyrano[3,2-d][1,3]thiazol-2-yl]ethylcarbamate]	100 to 500 nM

same assay, conditions: 20 nM His-Tagged hOGA, 10 μM FL-GlcNAc, pH 6.5, 60 min room temperature; read-out: OGA enzyme inhibition (IC50)

IC50	Structure (SMILES)
100 to 500 nM	CCN(C(=O)OCc1ccccc1)C1=N[C@@H]2[C@@H](O)[C@H](O)[C@@H](CO)O[C@@H]2S1 [compound no. 62, benzyl [(3aR,5R,6S,7R,7aR)-6,7-dihydroxy-5-(hydroxymethyl)-5,6,7,7a-tetrahydro-3aH-pyrano[3,2-d][1,3]thiazol-2-yl]ethylcarbamate]

same assay, conditions: read-out: OGA enzyme inhibition (IC50)

IC50	Structure (SMILES)
> 1000 nM	CCN(C)C1=N[C@@H]2[C@@H](O)[C@H](O)[C@@H](C(=O)O)O[C@@H]2S1 [compound no. 36, (3aR,5S,6S,7R,7aR)-2-[ethyl(methyl)amino]-6,7-dihydroxy-5,6,7,7a-tetrahydro-3aH-pyrano[3,2-d][1,3]thiazole-5-carboxylic acid]
> 1000 nM	CCNC1=N[C@@H]2[C@@H](O)[C@H](O)[C@@H](C(=O)OC)O[C@@H]2S1 [compound no. 42, Methyl-(3aR,5S,6S,7R,7aR)-2-(ethylamino)-6,7-dihydroxy-5,6,7,7a-tetrahydro-3aH-pyrano[3,2-d][1,3]thiazole-5-carboxylate]
> 1000 nM	CCNC1=N[C@@H]2[C@@H](O)[C@H](O)[C@@H](C(=O)N(C)OC)O[C@@H]2S1 [compound no. 45, (3aR,5S,6S,7R,7aR)-2-(ethylamino)-6,7-dihydroxy-N-methoxy-N-methyl-5,6,7,7a-tetrahydro-3aH-pyrano[3,2-d][1,3]thiazole-5-carboxamide]
500 to 1000 nM	CCNC1=N[C@@H]2[C@@H](O)[C@H](O)[C@@H](CNCc3ccccc3)O[C@@H]2S1 [compound no. 48, (3aR,5R,6S,7R,7aR)-5-[(benzylamino)methyl]-2-(ethylamino)-5,6,7,7a-tetrahydro-3aH-pyrano[3,2-d][1,3]thiazole-6,7-diol]
> 1000 nM	CCNC1=N[C@@H]2[C@@H](O)[C@H](O)[C@@H]([C@H](O)CCc3ccccc3)O[C@@H]2S1 [compound no. 54, (3aR,5R,6S,7R,7aR)-2-Ethylamino-5-((R)-1-hydroxy-3-phenyl-propyl)-5,6,7,7a-tetrahydro-3aH-pyrano[3,2-d]thiazole-6,7-diol]
> 1000 nM	CCNC1=N[C@@H]2[C@@H](O)[C@H](O)[C@@H](C(=O)CCc3ccccc3)O[C@@H]2S1 [compound no. 59, 1-[(3aR,5S,6S,7R,7aR)-2-(ethylamino)-6,7-dihydroxy-5,6,7,7a-tetrahydro-3aH-pyrano[3,2-d][1,3]thiazol-5-yl]-3-phenylpropan-1-one]
